Target: T1, FLuc-C-HiBiT (Photinus pyralis, UniProt P08659)
T1 construct: firefly luciferase with C-terminal HiBiT tag, E. coli expressed
Test: biochemical
Details: enzyme activity, 10 uM ATP; read-out: IC50 or SDR50 (mM) / FLuc E

T1 sequence (P08659 whole entry, looked up): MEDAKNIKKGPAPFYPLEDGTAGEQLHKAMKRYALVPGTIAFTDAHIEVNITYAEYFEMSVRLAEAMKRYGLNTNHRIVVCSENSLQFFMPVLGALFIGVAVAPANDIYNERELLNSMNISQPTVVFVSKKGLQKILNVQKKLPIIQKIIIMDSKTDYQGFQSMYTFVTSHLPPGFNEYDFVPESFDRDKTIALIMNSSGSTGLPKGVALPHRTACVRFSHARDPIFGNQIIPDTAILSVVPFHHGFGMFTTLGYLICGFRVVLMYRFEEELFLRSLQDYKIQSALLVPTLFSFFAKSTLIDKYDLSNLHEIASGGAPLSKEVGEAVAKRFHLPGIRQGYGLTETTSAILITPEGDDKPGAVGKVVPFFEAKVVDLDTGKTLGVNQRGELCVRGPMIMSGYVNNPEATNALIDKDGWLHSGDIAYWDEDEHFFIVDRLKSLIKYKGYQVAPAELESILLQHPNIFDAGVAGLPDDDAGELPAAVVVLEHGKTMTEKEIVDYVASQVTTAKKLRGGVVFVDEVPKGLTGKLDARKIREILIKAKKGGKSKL

| SMILES | IC50 [mM] |
| --- | --- |
| COc1cc(C(=O)NC2CCCN(c3cc(-c4ccc(F)cc4)n[nH]3)C2)cc(OC)c1OC (stereo not shown) [NCGC00437480-01] | 0.0111 |
| COc1cccc(-c2cc(C(=O)NCc3nc(-c4ccccc4)n[nH]3)[nH]n2)c1 [NCGC00437481-01] | 0.0111 |
| OC1(CN2CCCCC2)CCN(c2nc3ccccc3s2)C1 (stereo not shown) [NCGC00437487-01] | 0.0157 |
| COc1ccc(C(=O)NC2CCCN(c3cc(-c4ccc(F)cc4)n[nH]3)C2)cc1OC (stereo not shown) [NCGC00437488-01] | 0.0111 |
| O=C(NC1CCCN(c2cc(-c3ccc(F)cc3)n[nH]2)C1)c1ccc2ncccc2c1 (stereo not shown) [NCGC00437580-01] | 0.00881 |
| COc1ccc(-c2cc(N3CCCC(NC(=O)c4cccs4)C3)[nH]n2)cc1 (stereo not shown) [NCGC00437586-01] | 0.00989 |
| COc1ccc(-c2cc(N3CCCC(NC(=O)c4ccc5c(c4)OCO5)C3)[nH]n2)cc1 (stereo not shown) [NCGC00437602-01] | 0.0111 |
| CN(C)C1CCN(c2ccc(-c3nc(CCCc4ccccc4)no3)cn2)CC1 [NCGC00437613-01] | > 0.03 |
| COc1ccc(-c2cc(N3CCCC(NC(=O)c4cc(OC)c(OC)c(OC)c4)C3)[nH]n2)cc1 (stereo not shown) [NCGC00437614-01] | 0.00556 |
| COc1ccc(-c2cc(N3CCCC(NC(=O)c4cc(OC)cc(OC)c4)C3)[nH]n2)cc1 (stereo not shown) [NCGC00437618-01] | 0.00989 |
| COc1ccc(-c2cc(N3CCCC(NC(=O)c4ccc(OC)cc4OC)C3)[nH]n2)cc1 (stereo not shown) [NCGC00437622-01] | 0.0111 |
| COc1ccc(-c2cc(N3CCCC(NC(=O)c4ccc(OC)c(OC)c4)C3)[nH]n2)cc1 (stereo not shown) [NCGC00437624-01] | 0.00394 |
| COc1ccc(-c2cc(N3CCCC(NC(=O)c4ccncc4)C3)[nH]n2)cc1 (stereo not shown) [NCGC00437632-01] | 0.0111 |
| COc1ccc(-c2cc(N3CCCC(NC(=O)c4cccc(OC)c4)C3)[nH]n2)cc1 (stereo not shown) [NCGC00437636-01] | 0.00785 |
| COc1ccc(-c2cc(N3CCCC(NC(=O)c4cccc5[nH]ccc45)C3)[nH]n2)cc1 (stereo not shown) [NCGC00437654-01] | 0.014 |
| COc1ccc(-c2cc(N3CCCC(NC(=O)c4ccsc4)C3)[nH]n2)cc1 (stereo not shown) [NCGC00437662-01] | 0.00624 |
| COc1ccc(-c2cc(N3CCCC(NC(=O)c4c[nH]c5ccccc45)C3)[nH]n2)cc1 (stereo not shown) [NCGC00437686-01] | 0.0111 |
| COc1ccc(-c2cc(N3CCCC(NC(=O)c4ccc5ncccc5c4)C3)[nH]n2)cc1 (stereo not shown) [NCGC00437712-01] | 0.00394 |
| COc1ccc(-c2cc(N3CCCC(NC(=O)c4ccc5[nH]ccc5c4)C3)[nH]n2)cc1 (stereo not shown) [NCGC00437714-01] | 0.00495 |
| Cc1ccc2nc(C(=O)N3CCCC3c3cc(C(C)C)on3)cn2c1 (stereo not shown) [NCGC00437737-01] | 0.0157 |
| Cc1ccc(-c2cc(N3CCC(CNC(=O)c4ccc5[nH]cnc5c4)CC3)[nH]n2)cc1 [NCGC00437766-01] | 0.00881 |

| SMILES | IC50 [mM] |
| --- | --- |
| CC(=O)NC1CCN(Cc2cn(-c3ccc(C)cc3)nc2-c2cccc(C)c2)C1 (stereo not shown) [NCGC00437791-01] | 0.014 |
| CN(C)c1cccc(C(=O)NC2CCN(c3cc(-c4ccccc4)n[nH]3)C2)c1 (stereo not shown) [NCGC00437846-01] | 0.007 |
| CN(C)c1cccc(C(=O)NC2CCN(c3cc(-c4ccc(Cl)cc4)n[nH]3)C2)c1 (stereo not shown) [NCGC00437918-01] | 0.0111 |
| O=C(NC1CCN(c2cc(-c3ccc(F)cc3)n[nH]2)C1)c1cc2ccccc2[nH]1 (stereo not shown) [NCGC00437958-01] | 0.00624 |
| Cc1cc(F)ccc1OC1(C(=O)O)CCN(c2ncnc3[nH]cnc23)CC1 [NCGC00438333-01] | > 0.03 |
| O=C(O)c1ccnc(-c2ccnc(NCCN3CCCCC3=O)n2)c1 [NCGC00438481-01] | 0.0111 |
| CN(CCO)c1ccc(-c2nc(CCCc3ccccc3)no2)cn1 [NCGC00438483-01] | 0.0124 |
| Cc1c(-c2ccccc2F)[nH]c2ccc(CNC(=O)C3C=CCN3)cc12 (stereo not shown) [NCGC00438963-01] | 0.0124 |
| CCn1c(C2CCCN(C(=O)Nc3ccc4c(c3)OCCO4)C2)nn(C)c1=O (stereo not shown) [NCGC00439046-01] | 0.0111 |
| CSCC(=O)Nc1nn(-c2ccc(F)cc2)c2cccc(N3CCOCC3)c12 [NCGC00439780-01] | 0.00989 |
| O=C(Nc1ccc2c(c1)OCCO2)C1CN([S+](=O)([O-])C2CC2)CC12CCCCC2 (stereo not shown) [NCGC00439803-01] | 0.00442 |
| Cc1c(-c2ccccc2)[nH]c2c(CNC(=O)C3=NN(C)C(=O)CC3)cc(Cl)cc12 [NCGC00439904-01] | 0.0124 |
| C[C@@H]1CN(c2nc(-c3ccccc3)no2)CC[C@@]1(O)C1CCC1 [NCGC00439928-01] | 0.00176 |
| COc1ccc(-c2cc3nc4c(c(=O)n3[nH]2)CN(C(=O)NCc2ccco2)CC4)cc1 [NCGC00440289-01] | 0.0111 |
| OCC1(CC2CC2)CCCN(c2nc(-c3ccccc3)no2)C1 (stereo not shown) [NCGC00440394-01] | > 0.03 |
| COCCNc1cc(-c2ccc3ccccc3n2)c2cc[nH]c2n1 [NCGC00440476-01] | 0.0124 |
| O=C(Nc1nn(-c2cccc(F)c2)c2cccc(N3CCOCC3)c12)C1CCC1 [NCGC00440498-01] | 0.0111 |
| c1ccc(CCCc2noc(-c3ccc(NCc4ccccn4)nc3)n2)cc1 [NCGC00440648-01] | > 0.03 |
| CCc1nc(-c2ccc(OC3CCN(C(=O)C4CC4)C3)cc2)no1 (stereo not shown) [NCGC00440987-01] | 0.0124 |
| O=C(c1ccncc1)N1CCC(Oc2ccc(-c3noc(-c4ccccc4)n3)cc2)C1 (stereo not shown) [NCGC00440993-01] | 0.0124 |
| Cc1nc(C)c(C(=O)N2CCC(Oc3ccc(-c4noc(-c5ccccc5)n4)cc3)C2)s1 (stereo not shown) [NCGC00440995-01] | 0.0111 |

| SMILES | IC50 [mM] |
| --- | --- |
| Cc1ncccc1C(=O)N1CCC(Oc2ccc(-c3noc(-c4ccccc4)n3)cc2)C1 (stereo not shown) [NCGC00440997-01] | 0.0111 |
| O=C(c1ccccn1)N1CCC(Oc2ccc(-c3noc(-c4ccccc4)n3)cc2)C1 (stereo not shown) [NCGC00441001-01] | 0.0111 |
| O=C(NCc1ccc(F)cc1)N1CC(Oc2ccc(-c3nc(-c4ccccc4)no3)cc2)C1 [NCGC00441109-01] | > 0.03 |
| O=C(Nc1ccccc1)N1CC(Oc2ccc(-c3nc(-c4ccccc4)no3)cc2)C1 [NCGC00441117-01] | 0.0111 |
| CCNC(=O)N1CC(Oc2ccc(-c3nc(-c4ccccc4)no3)cc2)C1 [NCGC00441125-01] | 0.00556 |
| Cc1cc(CNC(=O)CC2C=C[S+](=O)([O-])C2)c2[nH]c(-c3ccccc3)c(C)c2c1 (stereo not shown) [NCGC00441154-01] | 0.0111 |
| O=C(Cc1cccc(F)c1)N1CC(Oc2ccc(-c3nc(-c4ccccc4)no3)cc2)C1 [NCGC00441157-01] | 0.0124 |
| c1ccc(-c2noc(-c3ccc(OC4CNC4)cc3)n2)cc1 [NCGC00441173-01] | 0.00279 |
| Cc1ncccc1C(=O)N1CC(Oc2ccc(-c3nc(-c4ccccc4)no3)cc2)C1 [NCGC00441179-01] | 0.00624 |
| OC1CCCN(c2ccc(-c3nc(-c4cccc(C(F)(F)F)c4)no3)cn2)C1 (stereo not shown) [NCGC00441254-01] | 0.00556 |
| O=C(O)C1(Oc2ccc3ccccc3c2)CCN(c2ncnc3[nH]cnc23)CC1 [NCGC00441641-01] | > 0.03 |
| C[C@@H]1CN(c2cnc3ccccc3n2)CC[C@@]1(O)C1CCC1 [NCGC00441645-01] | 0.0111 |
| CCn1ccnc1C1CCN(c2nc3ccccc3s2)CC1 [NCGC00442461-01] | 0.00989 |
| Cc1c(-c2ccc(F)cc2)[nH]c2ccc(CNC(=O)CN3CCOC3=O)cc12 [NCGC00442659-01] | 0.0111 |
| CNc1nc(C(=O)NCc2ccc3[nH]c(-c4ccc(F)cc4)c(C)c3c2)cs1 [NCGC00443141-01] | 0.0111 |
| OC1(CN2CCCN(c3nc4ccccc4s3)CC2)CNCCOC1 (stereo not shown) [NCGC00443145-01] | > 0.03 |
| Cc1cc(C)n(CCC(=O)N2CCC(Cc3noc(C4CC4)n3)C2)n1 (stereo not shown) [NCGC00443208-01] | > 0.03 |
| c1ccc(CCCNc2nccc(-c3ccccn3)n2)nc1 [NCGC00443451-01] | > 0.03 |
| COc1ccc2c(C)c(-c3nc(C4CCOC4)no3)oc2c1 (stereo not shown) [NCGC00443479-01] | > 0.03 |
| c1c(-c2nc(C3CCOC3)no2)sc2c1CCCC2 (stereo not shown) [NCGC00443783-01] | 0.00556 |
| NC(=O)[C@@H]1CCCN1C(=O)c1ccc2oc(-c3cccc(F)c3)nc2c1 [NCGC00444081-01] | > 0.03 |

| SMILES | IC50 [mM] |
| --- | --- |
| CC1(Cc2ccc3c(c2)OCO3)CCCN(C(=O)c2ccc3ncsc3c2)C1 (stereo not shown) [NCGC00444241-01] | 0.00989 |
| O=C(NCCc1c[nH]cn1)c1ccc2nc(-c3ccc(F)cc3)cn2c1 [NCGC00444507-03] | 0.014 |
| O=C(NCC1CCCN(C(=O)N2CCCC2)C1)c1ccc(-c2ccccc2)cc1 (stereo not shown) [NCGC00444515-01] | 0.0124 |
| c1nc(N2C[C@@H](c3ccc4c(c3)OCO4)[C@@H]3[C@H]2C2CCN3CC2)c2nc[nH]c2n1 [NCGC00444647-01] | > 0.03 |
| OCc1ccnc(-c2ccc(-c3ccn[nH]3)cc2)c1 [NCGC00444969-01] | 0.00989 |
| CCOc1cccc(-c2nc(C3CCOC3)no2)c1 (stereo not shown) [NCGC00445015-01] | > 0.03 |
| COc1ccc(N2CCN(C(=O)Cn3cccc3-c3nc(-c4ccc5c(c4)OCO5)no3)CC2)cc1 [NCGC00445315-01] | > 0.03 |
| CCCc1ccc(-c2nc(C3CCOC3)no2)cc1 (stereo not shown) [NCGC00445403-01] | 0.007 |
| COc1ccc(C(=O)NCCn2cccc2-c2nc(-c3ccccc3)no2)cc1 [NCGC00445570-01] | 0.00279 |
| O=C(NCCn1cccc1-c1nc(-c2ccc3c(c2)OCO3)no1)c1ccc(Cl)cc1 [NCGC00445582-01] | 0.00989 |
| Cc1ccc(C(=O)NCCn2cccc2-c2nc(-c3ccc4c(c3)OCO4)no2)cn1 [NCGC00445612-01] | 0.0111 |
| Cc1cc(NCCc2cnccn2)nc(-c2ccccc2O)n1 [NCGC00445970-01] | > 0.03 |
| CCCn1ncc(-c2nc(-c3ccncc3)no2)c1C [NCGC00445972-01] | 0.00881 |
| c1ccc(COc2ccc(CN3CCSCC3)cc2)nc1 [NCGC00446150-01] | 0.0124 |
| c1ccc(-c2ccnc(NCCc3c[nH]c4ccccc34)n2)nc1 [NCGC00446312-01] | 0.0197 |
| Cc1nc2ccc(-c3nc(C4CCOC4)no3)cc2s1 (stereo not shown) [NCGC00446448-01] | 0.0111 |
| Cc1ccc(C2=NOC3(CCN(C(=O)c4cccc(N(C)C)c4)CC3)N2)cc1 [NCGC00446875-01] | 0.00989 |
| CSCc1nc(-c2ccncc2)nn1Cc1ccc2c(c1)OCO2 [NCGC00447092-01] | > 0.03 |
| Cc1ccc(-c2nc(C(=O)N(C)Cc3ccccc3)no2)cc1 [NCGC00447109-01] | 0.0124 |
